The record followed here is patent publication US10383880B2 (Reset Therapeutics, Inc., priority 2012, dated 2019).

The assay relates to Per2-dLuc U2OS reporter cells. In words: Per2 assay for evaluating the potency of test compounds (high-throughput circadian assay). It is filed as cell-based. As to conditions: Homo sapiens, U2OS, stable U2OS reporter cells harboring Per2-dLuc; luminescence monitored over 4-5 days at 35° C. The gist of the method:
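Compounds (0.5% DMSO final) were added right after serum-shock synchronization of Per2-dLuc U2OS reporter cells in minimal medium containing 1.0 mM beetle luciferin. Reporter luminescence was followed at 35 °C for 4–5 days to extract rhythm period, amplitude and phase, and EC50 values were obtained from these.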
The term EC50 denotes the concentration giving half of the maximal effect. A lower EC50 goes with an effect from little substance. Turning to `CS(=O)(=O)N(CC(O)Cn1c2ccccc2c2ccccc21)C1CC2CCC1O2` (single isomer, unassigned) [Compound 140A, N-(3-(9H-Carbazol-9-yl)-2-hydroxypropyl)-N-(7-oxabicyclo[2.2.1]heptan-2-yl)methanesulfonamide], the EC50 worked out at 0.503 µM.

In turn, `CS(=O)(=O)N(CC(O)Cn1c2ccccc2c2ccccc21)c1cccc(Cl)c1` (stereo not drawn) [Compound 64, N-(3-(9H-Carbazol-9-yl)-2-hydroxypropyl)-N-(3-chlorophenyl)methanesulfonamide] had a concentration giving a half-maximal response (EC50) of 1 µM.

Turning to `CS(=O)(=O)N(CC(O)Cn1c2ccccc2c2ccccc21)c1ccccc1I` (stereo not drawn) [Compound 26, N-(3-(9H-Carbazol-9-yl)-2-hydroxypropyl)-N-(2-iodophenyl)methanesulfonamide], the response was half-maximal at 1.3 µM (EC50).

Take `CC(O)(CN(Cc1ccco1)S(C)(=O)=O)Cn1c2ccccc2c2ccccc21` (stereo not drawn) [Compound 240, N-(3-(9H-Carbazol-9-yl)-2-hydroxy-2-methylpropyl)-N-(furan-2-yl-methyl)methane-sulfonamide]: the 50% effective concentration (EC50) was 1.06 µM.

With `O=S(=O)(CC1CCOC1)N(Cc1ccco1)CC(O)Cn1c2ccccc2c2ccccc21` (stereo not drawn) [Compound 17, N-(3-(9H-Carbazol-9-yl)-2-hydroxypropyl)-N-(furan-2-ylmethyl)-1-(tetrahydrofuran-3-yl)methanesulfonamide], the midpoint of the response, the EC50, lay at 2.49 µM.

The molecule `CC1(C)CCN(CC(O)Cn2c3ccc(F)cc3c3cc(F)ccc32)S1(=O)=O` (stereo not drawn) [Compound 178, 2-(3-(3,6-Difluoro-9H-carbazol-9-yl)-2-hydroxypropyl)-5,5-dimethylisothiazolidine-1,1-dioxide] registered an EC50 of 0.073 µM.

`CS(=O)(=O)N(CC(O)Cn1c2ccccc2c2ccccc21)C1CCCCC1` (stereo not drawn) [Compound 71, N-(3-(9H-Carbazol-9-yl)-2-hydroxypropyl)-N-cyclohexylmethanesulfonamide] gave an EC50 of 3.3 µM.

`CS(=O)(=O)N(CC(O)Cn1c2ccccc2c2ccccc21)c1ccc(F)cc1` (stereo not drawn) [Compound 24, N-(3-(9H-Carbazol-9-yl)-2-hydroxypropyl)-N-(4-fluorophenyl)methanesulfonamide] had a 50% effective concentration (EC50) of 0.21 µM.

As for `O=S1(=O)CCCCN1CC(O)Cn1c2ccc(F)cc2c2ccc(F)cc21` (stereo not drawn) [Compound 100, N-(3-(2,6-Diflouoro-9H-carbazol-9-yl)-2-hydroxypropyl)-1,2-thiazinane 1,1-dioxide], the EC50 amounted to 0.032 µM.

For `CC(C)N(CC(O)Cn1c2ccccc2c2ccccc21)S(C)(=O)=O` (stereo not drawn) [Compound 46, N-(3-(9H-Carbazol-9-yl)-2-hydroxypropyl)-N-isopropylmethanesulfonamide], the EC50 worked out at 0.1 µM.

As to `CCCc1ccc(N(CC(O)Cn2c3ccc(F)cc3c3cc(F)ccc32)S(C)(=O)=O)cc1` (stereo not drawn) [Compound 200, N-(3-(3,6-Difluoro-9H-carbazol-9-yl)-2-hydroxypropyl)-N-(4-propylphenyl)methanesulfonamide], the EC50 is 1.89 µM.

With `CC1CCCC1N(CC(O)Cn1c2ccccc2c2ccccc21)S(C)(=O)=O` (stereo not drawn) [Compound 136, N-(3-(9H-Carbazol-9-yl)-2-hydroxypropyl)-N-(2-methylcyclopentyl)methanesulfonamide], the half-maximal effective concentration (EC50) came out at 0.113 µM.

`CC(C)S(=O)(=O)N(Cc1ccco1)CC(O)Cn1c2ccccc2c2ccccc21` (stereo not drawn) [Compound 82, N-(3-(9H-Carbazol-9-yl)-2-hydroxypropyl)-N-(furan-2-ylmethyl)propane-2-sulfonamide]: the concentration for a half-maximal effect (EC50) came out at 0.158 µM.

`COCc1ccc(N(CC(O)Cn2c3ccc(F)cc3c3cc(F)ccc32)S(C)(=O)=O)cc1` (stereo not drawn) [Compound 209, N-(3-(3,6-Difluoro-9H-carbazol-9-yl)-2-hydroxypropyl)-N-(4-(methoxymethyl)phenyl)methanesulfonamide] displayed a 50% effective concentration (EC50) of 4.81 µM.

`O=S1(=O)CCCCN1CC(O)Cn1c2ccccc2c2ccccc21` (stereo not drawn) [Compound 33, N-(3-(9H-Carbazol-9-yl)-2-hydroxypropyl)-1,2-thiazinane 1,1-dioxide] came in with an EC50 of 0.035 µM.

`COCCN(CC(O)Cn1c2ccccc2c2ccccc21)S(C)(=O)=O` (stereo not drawn) [Compound 30, N-(3-(9H-Carbazol-9-yl)-2-hydroxypropyl)-N-(2-methoxyethyl)methanesulfonamide] came in with a 50% effective concentration (EC50) of 0.39 µM.

The molecule `CC(O)(CN(C1(C)CC1)S(C)(=O)=O)Cn1c2ccc(F)cc2c2cc(F)ccc21` (stereo not drawn) [Compound 189, N-(3-(3,6-Difluoro-9H-carbazol-9-yl)-2-hydroxy-2-methylpropyl)-N-(1-methylcyclopropyl)methanesulfonamide] yielded a 50% effective concentration (EC50) of 1.29 µM.

`CCS(=O)(=O)N(Cc1ccco1)CC(O)Cn1c2ccccc2c2ccccc21` (stereo not drawn) [Compound 2, N-(3-(9H-Carbazol-9-yl)-2-hydroxypropyl)-N-(furan-2-ylmethyl)ethanesulfonamide] registered a half-maximal effective concentration (EC50) of 0.742 µM.

Consider `COCCN(CC(O)Cn1c2ccc(F)cc2c2cc(F)ccc21)S(C)(=O)=O` (stereo not drawn) [Compound 90, N-(3-(3,6-Difluoro-9H-carbazol-9-yl)-2-hydroxypropyl)-N-(2-methoxyethyl)methanesulfonamide], for which the EC50 was determined as 0.406 µM.

In turn, `CS(=O)(=O)N(CC(O)Cn1c2ccccc2c2ccccc21)CC1CC2CCC1C2` (stereo not drawn) [Compound 75, N-(3-(9H-Carbazol-9-yl)-2-hydroxypropyl)-N-(bicyclo[2.2.1]heptan-2-ylmethyl)methanesulfonamide] showed an EC50 of 0.842 µM.

As to `CC1CC(N(CC(O)Cn2c3ccc(F)cc3c3cc(F)ccc32)S(C)(=O)=O)C1` (stereo not drawn) [Compound 190, N-(3-(3,6-Difluoro-9H-carbazol-9-yl)-2-hydroxypropyl)-N-(3-methylcyclobutyl)methanesulfonamide], a half-maximal effect (EC50) was put at 0.211 µM.

`O=S1(=O)NCCCN1CC(O)Cn1c2ccccc2c2ccccc21` (stereo not drawn) [Compound 123, 2-(3-(9H-Carbazol-9-yl)-2-hydroxypropyl)-1,2,6-thiadiazinane-1,1-dioxide] returned an EC50 of 0.033 µM.

Turning to `O=S1(=O)CCCN1CC(O)Cn1c2cccc(F)c2c2c(F)cccc21` (stereo not drawn) [Compound 106, N-(3-(4,5-Difluoro-9H-carbazol-9-yl)-2-hydroxypropyl)-isothiazolidine-1,1-dioxide], the half-maximal effective concentration (EC50) amounted to 8.6 µM.

`CS(=O)(=O)N(Cc1cccc(F)c1)CC(O)Cn1c2ccccc2c2ccccc21` (stereo not drawn) [Compound 67, N-(3-(9H-Carbazol-9-yl)-2-hydroxypropyl)-N-(3-fluorobenzyl)methanesulfonamide]: the EC50 came out at 3.14 µM.

In turn, `CS(=O)(=O)N(CC(O)Cn1c2ccccc2c2ccccc21)C1CCC1` (stereo not drawn) [Compound 57, N-(3-(9H-Carbazol-9-yl)-2-hydroxypropyl)-N-cyclobutylmethanesulfonamide] showed an EC50 of 0.035 µM.

Molecule `CC(O)(CN1CCN(C2CCCC2)S1(=O)=O)Cn1c2ccc(F)cc2c2cc(F)ccc21` (stereo not drawn) [Compound 232] showed a concentration giving a half-maximal response (EC50) of 2.58 µM.

Regarding `CCCS(=O)(=O)N(Cc1ccco1)CC(O)Cn1c2ccccc2c2ccccc21` (stereo not drawn) [Compound 3, N-(3-(9H-Carbazol-9-yl)-2-hydroxypropyl)-N-(furan-2-ylmethyl)propane-1-sulfonamide], the EC50 stood at 0.65 µM.

On to `CC(C)N1CCCN(CC(O)Cn2c3ccc(F)cc3c3cc(F)ccc32)S1(=O)=O` (stereo not drawn) [Compound 217, 2-(3-(3,6-Difluoro-9H-carbazol-9-yl)-2-hydroxypropyl)-6-isopropyl-1,2,6-thiadiazinane-1,1-dioxide], for which the EC50 is 1.67 µM.

For the molecule `O=S1(=O)CCCN1C[C@@H](O)Cn1c2ccccc2c2ccccc21` [Compound 39, (S)-N-(3-(9H-Carbazol-9-yl)-2-hydroxypropyl)isothiazolidine 1,1-dioxide], the EC50 was found to be 0.021 µM.

In the case of `O=S(=O)(C1CC1)N(Cc1ccco1)CC(O)Cn1c2ccccc2c2ccccc21` (stereo not drawn) [Compound 16, N-(3-(9H-Carbazol-9-yl)-2-hydroxypropyl)-N-(furan-2-ylmethyl)cyclopropanesulfonamide], the response was half-maximal at 1.67 µM (EC50).

The molecule `CS(=O)(=O)N(Cc1ccco1)CC(O)Cn1c2ccccc2c2ccc(F)cc21` (stereo not drawn) [Compound 237, N-(3-(2-Fluoro-9H-carbazol-9-yl)-2-hydroxy-propyl)-N-(furan-2-yl-methyl)methane-sulfonamide] showed a 50% effective concentration (EC50) of 0.594 µM.

Regarding `CCN1CCCN(CC(O)Cn2c3ccc(F)cc3c3cc(F)ccc32)S1(=O)=O` (stereo not drawn) [Compound 226, 2-(3-(3,6-Difluoro-9H-carbazol-9-yl)-2-hydroxypropyl)-6-ethyl-1,2,6-thiadiazinane-1,1-dioxide], the 50% effective concentration (EC50) came out at 0.314 µM.

`CC(C)N1CCN(CC(O)Cn2c3ccc(F)cc3c3cc(F)ccc32)S1(=O)=O` (stereo not drawn) [Compound 224]: the half-maximal effective concentration (EC50) was found to be 0.059 µM.

As to `CC(C)(C(O)CN1CCCS1(=O)=O)n1c2ccccc2c2ccccc21` (stereo not drawn) [Compound 114, 2-(3-(9H-Carbazol-9-yl)-2-hydroxy-3-methylbutyl)-isothiazolidine-1,1-dioxide], the concentration for a half-maximal effect (EC50) worked out at 0.521 µM.

As to `CS(=O)(=O)N(CC(O)Cn1c2ccccc2c2ccccc21)CC1CCCCO1` (stereo not drawn) [Compound 53, N-(3-(9H-Carbazol-9-yl)-2-hydroxypropyl)-N-((tetrahydro-2H-pyran-2-yl)methyl)methanesulfonamide], the response was half-maximal at 0.578 µM (EC50).

The molecule `CS(=O)(=O)N(CC(O)Cn1c2ccccc2c2ccccc21)c1ccc(C#N)cc1` (stereo not drawn) [Compound 80, N-(3-(9H-Carbazol-9-yl)-2-hydroxypropyl)-N-(4-cyanophenyl)methanesulfonamide] showed an EC50 of 4.22 µM.

For `CCCN(CC(O)Cn1c2ccc(F)cc2c2ccc(F)cc21)S(C)(=O)=O` (stereo not drawn) [Compound 163, N-(3-(2,6-Difluoro-9H-carbazol-9-yl)-2-hydroxypropyl)-N-propylmethanesulfonamide], the EC50 came to 0.206 µM.

As to `O=S1(=O)N(CC(O)Cn2c3ccc(F)cc3c3cc(F)ccc32)CCCN1C1CCC1` (stereo not drawn) [Compound 228, 2-(3-(3,6-Difluoro-9H-carbazol-9-yl)-2-hydroxypropyl)-6-cyclobutyl-1,2,6-thiadiazinane-1,1-dioxide], a half-maximal effect (EC50) was put at 3.43 µM.

Regarding `CC(O)(CN1CCCNS1(=O)=O)Cn1c2ccc(F)cc2c2cc(F)ccc21` (stereo not drawn) [Compound 172, 2-(3-(3,6-Difluoro-9H-carbazol-9-yl)-2-hydroxy-2-methylpropyl)-1,2,6-thiadiazinane-1,1-dioxide], the half-maximal effective concentration (EC50) amounted to 0.375 µM.
